Among the data in ChEMBL document CHEMBL1133279, “Aminoalkyl adenylate and aminoacyl sulfamate intermediate analogues differing greatly in affinity for their cognate Staphylococcus aureus aminoacyl tRNA synthetases” (Bioorg Med Chem Lett, 2000) are inhibition values, retold here.

The inhibition is how much of the control response was suppressed. The low end stands for little suppression, the high end for strong suppression.

For assay [1], the system named is Threonyl-tRNA synthetase (Staphylococcus aureus). Briefly: Inhibitory activity against cognate Staphylococcus aureus threonyl tRNA synthetase at 300 uM.
In assay [2] the test system is Histidyl-tRNA synthetase (Staphylococcus aureus). The experiment in a line: Inhibitory activity against cognate Staphylococcus aureus Histidyl-tRNA synthetase at 300 uM.

With `C[C@@H](O)[C@H](N)COP(=O)(O)OC[C@H]1O[C@@H](n2cnc3c(N)ncnc32)[C@H](O)[C@@H]1O`, the inhibition in assay [1] was 60%.
`Nc1ncnc2c1ncn2[C@@H]1O[C@H](COP(=O)(O)OC[C@@H](N)Cc2c[nH]cn2)[C@@H](O)[C@H]1O` came in with an inhibition in assay [2] of 20%.
